Measurements: patent US20220306659A1, “COMPOUND INHIBITING AND INDUCING DEGRADATION OF EGFR AND ALK” (BEIJING TIDE PHARMACEUTICAL CO., LTD., priority 2019, published 2022)

Molecular target: Ba/F3(EGFR^Del19/T790M/C797S) cells (Homo sapiens, UniProt P00533, DEL746-750/T790M/C797S, cells depend on it)
Experiment: Assay of activity on Ba/F3 cells (CTG, 72 h)
Format: cell-based
Settings: read-out: IC50 (nM) Ba/F3 (EGFR^Del19/T790M/C797S)
Experimental: (2) A compound stock solution was prepared, and then diluted 3× to obtain a compound dilution. 30 nL of the compound dilution was added to a 384-well plate by Echo (Labcyte, Echo550). The cells were incubated in an incubator at 37° C. and 5% CO2 for 72 h.
The percent inhibition rate (% inhibition) was calculated by the following formula
LUMcmpd: Luminescence value of assay compound.
LUMpositive: Average LUM value of positive drug at a concentration of 10 μM.
LUMvehicle. Average LUM value of negative control group without drug treatment.
The nonlinear regression curve (dose response-variable slope) between the value of inhibition rate (%) and the logarithm of compound concentration was fitted with graphpad prism 8.0, the effect dose curve of compound was drawn, and the IC50 value was calculated.
Y=Bottom+(Top−Bottom)/(1+1^((LogIC50−X)*HillSlope))
X-axis: logarithm of compound concentration; Y axis: inhibition rate ([…]).

Sequence of Ba/F3(EGFR^Del19/T790M/C797S) cells (P00533 with tags, fused parts or gaps DEL746-750/T790M/C797S): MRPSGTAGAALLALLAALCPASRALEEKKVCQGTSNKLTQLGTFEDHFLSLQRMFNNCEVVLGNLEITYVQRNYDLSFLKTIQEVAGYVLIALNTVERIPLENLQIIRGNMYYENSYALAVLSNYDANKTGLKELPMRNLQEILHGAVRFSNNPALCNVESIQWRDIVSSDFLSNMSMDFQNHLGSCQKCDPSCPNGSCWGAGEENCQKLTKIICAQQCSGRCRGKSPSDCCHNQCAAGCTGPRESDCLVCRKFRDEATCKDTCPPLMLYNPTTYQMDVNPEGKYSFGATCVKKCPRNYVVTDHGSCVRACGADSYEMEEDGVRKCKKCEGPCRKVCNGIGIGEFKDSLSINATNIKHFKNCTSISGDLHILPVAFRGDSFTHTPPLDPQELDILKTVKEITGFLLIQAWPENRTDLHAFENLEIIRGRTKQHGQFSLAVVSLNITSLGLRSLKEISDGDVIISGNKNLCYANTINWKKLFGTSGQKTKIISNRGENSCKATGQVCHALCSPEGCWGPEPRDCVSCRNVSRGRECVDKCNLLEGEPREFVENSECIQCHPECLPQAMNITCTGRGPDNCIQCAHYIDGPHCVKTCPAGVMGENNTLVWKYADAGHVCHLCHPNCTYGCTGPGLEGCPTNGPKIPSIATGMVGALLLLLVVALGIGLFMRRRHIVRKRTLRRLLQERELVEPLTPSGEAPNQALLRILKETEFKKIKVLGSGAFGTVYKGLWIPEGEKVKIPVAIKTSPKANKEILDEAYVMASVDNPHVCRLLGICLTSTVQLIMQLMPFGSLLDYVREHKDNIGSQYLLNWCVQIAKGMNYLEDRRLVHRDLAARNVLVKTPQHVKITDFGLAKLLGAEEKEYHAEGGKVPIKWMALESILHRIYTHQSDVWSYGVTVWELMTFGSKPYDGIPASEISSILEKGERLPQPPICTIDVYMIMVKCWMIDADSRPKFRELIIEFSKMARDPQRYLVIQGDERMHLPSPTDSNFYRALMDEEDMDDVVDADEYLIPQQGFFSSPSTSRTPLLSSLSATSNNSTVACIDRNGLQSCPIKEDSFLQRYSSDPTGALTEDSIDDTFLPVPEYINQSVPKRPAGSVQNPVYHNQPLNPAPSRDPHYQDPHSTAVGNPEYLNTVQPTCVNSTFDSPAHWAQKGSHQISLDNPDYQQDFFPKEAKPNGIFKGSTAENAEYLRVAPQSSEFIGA

Row | Compound | GI50
1 | COc1cc(N2CCC(N3CCN(CCCCCC#Cc4cc(C(F)(F)F)cc5c4CN(C4CCC(=O)NC4=O)C5=O)CC3)CC2)ccc1Nc1ncc(Cl)c(Nc2ccccc2P(C)(C)=O)n1 (stereo not shown) [Compound C267, 3-(4-(7-(4-(1-(4-((5-chloro-4-((2-(dimethylphosphoryl)phenyl)amino)pyrimidin-2-yl)amino)-3-methoxyphenyl)piperidin-4-yl)piperazin-1-yl)hept-1-yn-1-yl)-1-oxo-6-(trifluoromethyl)isoindolin-2-yl)piperidine-2,6-dione] | 1 to 100 nM
2 | COc1cc(N2CCC(N3CCN(CCCCC#Cc4cc(C(F)(F)F)cc5c4CN(C4CCC(=O)NC4=O)C5=O)CC3)CC2)ccc1Nc1ncc(Cl)c(Nc2ccccc2P(C)(C)=O)n1 (stereo not shown) [Compound C268, 3-(4-(6-(4-(1-(4-((5-chloro-4-((2-(dimethylphosphoryl)phenyl)amino)pyrimidin-2-yl)amino)-3-methoxyphenyl)piperidin-4-yl)piperazin-1-yl)hex-1-yn-1-yl)-1-oxo-6-(trifluoromethyl)isoindolin-2-yl)piperidine-2,6-dione] | 1 to 100 nM
3 | COc1cc(N2CCC(N3CCN(CCCC#Cc4cc(C(F)(F)F)cc5c4CN(C4CCC(=O)NC4=O)C5=O)CC3)CC2)ccc1Nc1ncc(Cl)c(Nc2ccccc2P(C)(C)=O)n1 (stereo not shown) [Compound C269, 3-(4-(5-(4-(1-(4-((5-chloro-4-((2-(dimethylphosphoryl)phenyl)amino)pyrimidin-2-yl)amino)-3-methoxyphenyl)piperidin-4-yl)piperazin-1-yl)pent-1-yn-1-yl)-1-oxo-6-(trifluoromethyl)isoindolin-2-yl)piperidine-2,6-dione] | 1 to 100 nM
4 | COc1cc(N2CCC(N3CCN(CCCCCc4cccc5c4CN(C4CCC(=O)NC4=O)C5=O)CC3)CC2)c(C)cc1Nc1ncc(Br)c(Nc2ccc3nccnc3c2P(C)(C)=O)n1 (stereo not shown) [Compound C285, 3-(4-(5-(4-(1-(4-((5-bromo-4-((5-(dimethylphosphoryl)quinoxalin-6-yl)amino)pyrimidin-2-yl)amino)-5-methoxy-2-methylphenyl)piperidin-4-yl)piperazin-1-yl)pentyl)-1-oxoisoindolin-2-yl)piperidine-2,6-dione] | 1 to 100 nM
5 | COc1cc(N2CCC(N3CCN(CCCCCCc4cccc5c4CN(C4CCC(=O)NC4=O)C5=O)CC3)CC2)c(C)cc1Nc1ncc(Br)c(Nc2ccc3nccnc3c2P(C)(C)=O)n1 (stereo not shown) [Compound C286, 3-(4-(6-(4-(1-(4-((5-bromo-4-((5-(dimethylphosphoryl)quinoxalin-6-yl)amino)pyrimidin-2-yl)amino)-5-methoxy-2-methylphenyl)piperidin-4-yl)piperazin-1-yl)hexyl)-1-oxoisoindolin-2-yl)piperidine-2,6-dione] | 1 to 100 nM
6 | COc1cc(N2CCC(N3CCN(CCCCc4cccc5c4CN(C4CCC(=O)NC4=O)C5=O)CC3)CC2)c(C)cc1Nc1ncc(Br)c(Nc2ccc3nccnc3c2P(C)(C)=O)n1 (stereo not shown) [Compound C301, 3-(4-(4-(4-(1-(4-((5-bromo-4-((5-(dimethylphosphoryl)quinoxalin-6-yl)amino)pyrimidin-2-yl)amino)-5-methoxy-2-methylphenyl)piperidin-4-yl)piperazin-1-yl)butyl)-1-oxoisoindolin-2-yl)piperidine-2,6-dione] | 1 to 100 nM
7 | COc1cc(N2CCC3(CCN(CCCCc4cccc5c4CN(C4CCC(=O)NC4=O)C5=O)CC3)CC2)c(C)cc1Nc1ncc(Br)c(Nc2ccc3nccnc3c2P(C)(C)=O)n1 (stereo not shown) [Compound C302, 3-(4-(4-(9-(4-((5-bromo-4-((5-(dimethylphosphoryl)quinoxalin-6-yl)amino)pyrimidin-2-yl)amino)-5-methoxy-2-methylphenyl)-3,9-diazaspiro[5.5]undecan-3-yl)butyl)-1-oxoisoindolin-2-yl)piperidine-2,6-dione] | 1 to 100 nM
